From BindingDB's records for patent US20250092022 (Neurocrine Biosciences, 2025) come the findings set out here.

This assay concerns the target T1, Muscarinic acetylcholine receptor M4 (Homo sapiens, UniProt P08173).
T1 sequence (P08173 whole entry): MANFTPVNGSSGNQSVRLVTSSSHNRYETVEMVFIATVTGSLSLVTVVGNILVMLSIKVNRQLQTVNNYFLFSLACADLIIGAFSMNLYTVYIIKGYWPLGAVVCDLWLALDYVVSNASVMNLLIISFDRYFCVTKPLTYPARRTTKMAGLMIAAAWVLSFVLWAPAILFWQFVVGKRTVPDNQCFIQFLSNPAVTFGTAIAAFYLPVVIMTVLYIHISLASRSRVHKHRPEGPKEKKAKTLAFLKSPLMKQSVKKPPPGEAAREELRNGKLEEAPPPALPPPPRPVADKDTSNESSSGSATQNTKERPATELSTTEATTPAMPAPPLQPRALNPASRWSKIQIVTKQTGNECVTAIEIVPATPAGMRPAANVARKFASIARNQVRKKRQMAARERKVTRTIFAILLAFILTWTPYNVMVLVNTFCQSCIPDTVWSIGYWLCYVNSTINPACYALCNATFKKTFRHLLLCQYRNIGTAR
As to the kind of experiment: Binding Assay. As for the experimental part: Binding affinity (Ki) for the compounds was measured by inhibition of radioligand binding to membranes from CHO cells expressing human M4 receptor. Membranes were prepared by nitrogen cavitation and differential centrifugation as previously described (Hoare et al., Mol. Pharmacol. 2003 March; 63(3): 751-65). The radioligand employed was tritiated N-methylscopolamine, used at a concentration of 1.5 nM. A dose-response of twelve concentrations of compound was used, […]. The assay buffer was 50 mM HEPES, 100 mM NaCl, 5 mM MgCl2, 1 mM ethylenediaminetetraacetic acid, pH-adjusted to pH 7.4. Membranes, radioligand and compound were incubated together for 90 minutes at 37° C., in a total volume of 150 μL in a 96-well plate. Receptor-bound radioligand was then collected by harvesting the assay over glass fiber filters pretreated with polyethylenimine to trap the cell membranes, using rapid vacuum filtration. Harvesting and radioactivity counting was conducted as previously described (see, e.g., Hoare et al., Mol. Pharmacol. 2003 63(3):751-65); Erratum at Mol. Pharmacol. 2005 July; 68(1): 260).

`C[C@@H]1CN(c2ncc(S(=O)(=O)C3CC3)cn2)C[C@@H](C)N1C(=O)OC1CC2(C1)CN(Cc1ccccc1)C2` [US20250092022, Compound 19]: the Ki was less than 100 nM. Take `Cc1nc(N2C[C@@H](C)N(C(=O)OC3CC4(C3)CN(Cc3ccccc3)C4)[C@@H](C)C2)ncc1S(C)(=O)=O` [US20250092022, Compound 40]: the inhibition constant (Ki) is less than 100 nM. Compound `C[C@@H]1CN(c2ncc(S(=O)(=O)C(F)F)cn2)C[C@H](C)N1C(=O)OC1CC2(C1)CN(Cc1ccccc1)C2` [US20250092022, Compound 41] displayed a Ki of less than 100 nM. In turn, `C[C@@H]1CN(c2ncc(OCCO)cn2)C[C@H](C)N1C(=O)OC1CC2(C1)CN(Cc1ccccc1)C2` [US20250092022, Compound 52] returned a Ki of more than 500 nM.
